Test results as given in US20200309767A1, “HIGH-THROUGHPUT IMAGING-BASED METHODS FOR PREDICTING CELL-TYPE-SPECIFIC TOXICITY OF XENOBIOTICS WITH DIVERSE CHEMICAL STRUCTURES” (priority 2015, published 2020).
Entries after “also recorded” stand apart in the source; their conditions may differ. Like-named read-outs stand apart in the source and are kept apart here.

Legend:
liver = conditions: in vivo; cited from earlier work
[1] = test system: histone H2AX phosphorylated on serine 139 (γH2AX); type: cell-based, human
human kidney = conditions: cited from earlier work
[2] = test system: human proximal tubular cells (PTCs); conditions: cited from earlier work
HK-2 cells = conditions: previously observed (Wu et al.); cited from earlier work
primary PTCs = conditions: 1000 μg/mL
lung = conditions: human, in vivo; cited from earlier work

Row | Compound | Hepatotoxic (liver) | change in γH2AX levels [1] | Nephrotoxic (human kidney; in vivo) | PTC Toxicity ([2]; human, in vivo) | PTC-toxic ([2]; human, in vivo) | apoptotic responses (HK-2 cells) | cells with increased annexin-V levels (primary PTCs; 16 hours) [%] | increase in cell death rates (primary PTCs; within the measured period (16 hours)) | change in γH2AX levels ([1]; HPTC-B results) | Nephrotoxic (human kidney; known human kidney toxicity flag 1/0) | PTC Toxicity ([2]; known in vivo group, Toxic / Non-toxic) | PTC-toxic ([2]; known toxicity flag 1/0) | Pulmonotoxic (lung)
1 | NC(=O)c1ncn([C@@H]2O[C@H](CO)[C@@H](O)[C@H]2O)n1 [Ribavirin] | 0 | small or no change | 0 | Non-toxic | 0 | – | – | – | – | – | – | – | –
2 | Gentamicin | 0 | – | 1 | Toxic | 1 | lack of apoptotic responses | – | – | – | – | – | – | –
3 | C[C@@H]1Cc2c(Cl)cc(C(=O)N[C@@H](Cc3ccccc3)C(=O)O)c(O)c2C(=O)O1 [Ochratoxin A] | 0 | – | – | – | – | – | ~25 | very small or no increase | increasing levels; also recorded: large increase | 1 | Toxic | 1 | –
4 | N.N.[Cl][Pt][Cl] [Cisplatin] | – | increasing levels | – | – | – | – | – | – | – | – | – | – | –
5 | OCCO [Ethylene glycol] | 0 | – | 1 | Non-toxic | 0 | – | – | – | – | – | – | – | 0
6 | C[n+]1ccc(-c2cc[n+](C)cc2)cc1 [Paraquat] | 1 | – | 1 | Toxic | 1 | – | – | – | – | – | – | – | 1
7 | [Cl-].[Li+] [Lithium chloride] | 0 | small or no change | 1 | Non-toxic | 0 | – | – | – | – | – | – | – | 0
8 | O=c1[nH]cc(F)c(=O)[nH]1 [5-Fluorouracil] | 1 | – | 1 | Toxic | 1 | lack of apoptotic responses | – | – | – | – | – | – | –
9 | CCC[C@@H]1C[C@@H](C(=O)N[C@@H]([C@H]2O[C@H](SC)[C@H](O)[C@@H](O)[C@H]2O)[C@@H](C)O)N(C)C1 [Lincomycin] | 0 | small or no change | 1 | Non-toxic | 0 | – | – | – | – | – | – | – | –
